Laboratory results as given in the NIST ThermoML archive (doi:10.1016/j.tca.2011.12.010).
“And” between values parts separate entries of the source, which are not always exact repeats. Equal entries are not always repeated.

Assay: molar heat capacity at constant pressure
Conditions: 101.33 kPa, Small sample (50 mg) DSC

O=[N+]([O-])[O-].O=[N+]([O-])[O-].O=[N+]([O-])[O-].O=[N+]([O-])[O-].[K+].[K+].[Mg+2] [bis-potassium magnesium nitrate]
Conditions	molar heat capacity at constant pressure
298.15 K, Crystal 2	308 J/K/mol
299 K, Crystal 2	308.7 J/K/mol
300 K, Crystal 2	309.8 J/K/mol
301 K, Crystal 2	310.5 J/K/mol
302 K, Crystal 2	310.8 J/K/mol
303 K, Crystal 2	311.5 J/K/mol
304 K, Crystal 2	312.2 J/K/mol
305 K, Crystal 2	312.9 J/K/mol
306 K, Crystal 2	314 J/K/mol
307 K, Crystal 2	314.7 J/K/mol
308 K, Crystal 2	315.7 J/K/mol
309 K, Crystal 2	316.4 J/K/mol
310 K, Crystal 2	317.5 J/K/mol
311 K, Crystal 2	318.5 J/K/mol
312 K, Crystal 2	319.2 J/K/mol
313 K, Crystal 2	319.9 J/K/mol
314 K, Crystal 2	322 J/K/mol
315 K, Crystal 2	322 J/K/mol
316 K, Crystal 2	322.7 J/K/mol
317 K, Crystal 2	323.8 J/K/mol
318 K, Crystal 2	324.8 J/K/mol
319 K, Crystal 2	325.9 J/K/mol
320 K, Crystal 2	326.9 J/K/mol
321 K, Crystal 2	328 J/K/mol
325 K, Crystal 2	329 J/K/mol
326 K, Crystal 2	328 J/K/mol
327 K, Crystal 2	329.7 J/K/mol
328 K, Crystal 2	330.4 J/K/mol
329 K, Crystal 2	331.1 J/K/mol
330 K, Crystal 2	331.1 J/K/mol
331 K, Crystal 2	331.8 J/K/mol
332 K, Crystal 2	332.9 J/K/mol
333 K, Crystal 2	334.3 J/K/mol
334 K, Crystal 2	334.3 J/K/mol
335 K, Crystal 2	334.6 J/K/mol
336 K, Crystal 2	335.3 J/K/mol
337 K, Crystal 2	335.7 J/K/mol
338 K, Crystal 2	336.4 J/K/mol
339 K, Crystal 2	336.7 J/K/mol
340 K, Crystal 2	337.1 J/K/mol
341 K, Crystal 2	338.1 J/K/mol
342 K, Crystal 2	338.5 J/K/mol
343 K, Crystal 2	338.8 J/K/mol
344 K, Crystal 2	339.9 J/K/mol
345 K, Crystal 2	341.3 J/K/mol
346 K, Crystal 2	342 J/K/mol
347 K, Crystal 2	341.6 J/K/mol
348 K, Crystal 2	340.6 J/K/mol
349 K, Crystal 2	340.6 J/K/mol
350 K, Crystal 2	340.9 J/K/mol
351 K, Crystal 2	341.3 J/K/mol
352 K, Crystal 2	342 J/K/mol
353 K, Crystal 2	342.7 J/K/mol
354 K, Crystal 2	343.4 J/K/mol
355 K, Crystal 2	344.1 J/K/mol
356 K, Crystal 2	344.8 J/K/mol
357 K, Crystal 2	345.5 J/K/mol
358 K, Crystal 2	346.2 J/K/mol
359 K, Crystal 2	346.9 J/K/mol
360 K, Crystal 2	347.6 J/K/mol
361 K, Crystal 2	348.3 J/K/mol
362 K, Crystal 2	349.3 J/K/mol
363 K, Crystal 2	350.4 J/K/mol
364 K, Crystal 2	351.4 J/K/mol
365 K, Crystal 2	352.5 J/K/mol
366 K, Crystal 2	353.5 J/K/mol
367 K, Crystal 2	354.6 J/K/mol
368 K, Crystal 2	355.3 J/K/mol
369 K, Crystal 2	356 J/K/mol
370 K, Crystal 2	356.7 J/K/mol
371 K, Crystal 2	357.7 J/K/mol
372 K, Crystal 2	357.8 J/K/mol
373 K, Crystal 2	358.6 J/K/mol
374 K, Crystal 2	360.4 J/K/mol
375 K, Crystal 2	362.7 J/K/mol
376 K, Crystal 2	367.5 J/K/mol
377 K, Crystal 2	372.4 J/K/mol
378 K, Crystal 2	374.9 J/K/mol
379 K, Crystal 2	375.6 J/K/mol
380 K, Crystal 2	375.8 J/K/mol
381 K, Crystal 2	376 J/K/mol
382 K, Crystal 2	376.3 J/K/mol
383 K, Crystal 2	377.7 J/K/mol
384 K, Crystal 2	379.1 J/K/mol
385 K, Crystal 2	380.8 J/K/mol
386 K, Crystal 2	381.9 J/K/mol
387 K, Crystal 2	382.2 J/K/mol
388 K, Crystal 2	382.6 J/K/mol
389 K, Crystal 2	385 J/K/mol
390 K, Crystal 2	386.8 J/K/mol
391 K, Crystal 2	388.2 J/K/mol
392 K, Crystal 2	389.6 J/K/mol
393 K, Crystal 2	391.3 J/K/mol
394 K, Crystal 2	393.8 J/K/mol
395 K, Crystal 2	395.2 J/K/mol
396 K, Crystal 2	397.6 J/K/mol
397 K, Crystal 2	399.7 J/K/mol
398 K, Crystal 2	401.5 J/K/mol
399 K, Crystal 2	403.2 J/K/mol
400 K, Crystal 2	405.3 J/K/mol
401 K, Crystal 2	409.5 J/K/mol
402 K, Crystal 2	412.7 J/K/mol
403 K, Crystal 2	422.1 J/K/mol and 428.4 J/K/mol
403.15 K, Crystal 2	428.4 J/K/mol
404 K, Crystal 2	811 J/K/mol
405 K, Crystal 1	1042.3 J/K/mol
406 K, Crystal 1	900.2 J/K/mol
407 K, Crystal 1	714.4 J/K/mol
408 K, Crystal 1	611.1 J/K/mol
409 K, Crystal 1	562.5 J/K/mol
410 K, Crystal 1	518 J/K/mol
411 K, Crystal 1	464.1 J/K/mol
412 K, Crystal 1	426.3 J/K/mol
413 K, Crystal 1	409.2 J/K/mol
414 K, Crystal 1	403.6 J/K/mol
415 K, Crystal 1	402.9 J/K/mol
415.15 K, Crystal 1	402.9 J/K/mol
416 K, Crystal 1	403.2 J/K/mol
417 K, Crystal 1	403.6 J/K/mol
418 K, Crystal 1	404.3 J/K/mol
419 K, Crystal 1	405.3 J/K/mol
420 K, Crystal 1	406.4 J/K/mol
421 K, Crystal 1	409.2 J/K/mol
422 K, Crystal 1	408.5 J/K/mol
423 K, Crystal 1	407.8 J/K/mol
424 K, Crystal 1	407.3 J/K/mol
425 K, Crystal 1	408.5 J/K/mol
426 K, Crystal 1	406.3 J/K/mol
427 K, Crystal 1	405.9 J/K/mol
428 K, Crystal 1	404.1 J/K/mol
429 K, Crystal 1	403.2 J/K/mol
430 K, Crystal 1	405 J/K/mol and 410 J/K/mol
431 K, Crystal 1	407.1 J/K/mol
432 K, Crystal 1	409.5 J/K/mol
433 K, Crystal 1	412.7 J/K/mol
434 K, Crystal 1	415.1 J/K/mol
435 K, Crystal 1	417.2 J/K/mol
436 K, Crystal 1	419 J/K/mol
437 K, Crystal 1	417.6 J/K/mol
438 K, Crystal 1	420 J/K/mol
439 K, Crystal 1	421.4 J/K/mol
440 K, Crystal 1	425.3 J/K/mol
441 K, Crystal 1	427.7 J/K/mol
442 K, Crystal 1	429.8 J/K/mol
443 K, Crystal 1	431.6 J/K/mol
444 K, Crystal 1	434 J/K/mol
445 K, Crystal 1	436.5 J/K/mol
446 K, Crystal 1	438.9 J/K/mol
447 K, Crystal 1	441.4 J/K/mol
448 K, Crystal 1	444.5 J/K/mol
449 K, Crystal 1	449.1 J/K/mol
450 K, Crystal 1	451.5 J/K/mol
451 K, Crystal 1	454.3 J/K/mol
452 K, Crystal 1	458.9 J/K/mol
453 K, Crystal 1	463.4 J/K/mol
454 K, Crystal 1	469 J/K/mol
455 K, Crystal 1	476 J/K/mol
456 K, Crystal 1	484.1 J/K/mol
457 K, Crystal 1	494.9 J/K/mol
458 K, Crystal 1	508.9 J/K/mol and 511.7 J/K/mol
458.15 K, Crystal 1	511.7 J/K/mol
459 K, Crystal 1	532.4 J/K/mol
460 K, Crystal 1	561.4 J/K/mol
